Results taken from the supplement of paper PMC11616607.

Columns and labels:
Test in all cases: drug sensitivity score (DSS) from 5-point dose-response viability curve (DSS (area-under-curve based score)); higher = more sensitive (stronger growth inhibition or killing); extreme values may be limits of the assay
Conditions in all cases: exposure time: 72 h; concentration range: 5 concentrations over 10,000-fold range
CAOV3 = test system: CAOV3
Procedure, shortened: (§1)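 For the drug sensitivity score, obtained per cell line and drug in Breeze software, larger values mean greater sensitivity. No response corresponds to a score of zero. Ovarian cancer and normal ovarian cells were seeded at 1,500 per well into 384-well plates already holding acoustically dispensed drugs (Echo 550, DMSO or water, five concentrations over a 10,000-fold range) and incubated 3 days at 37°C, 5% CO2. CellTiter-Glo luminescence on a PHERAstar FS gave the viability readout.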

COV318 = test system: COV318
Procedure, shortened: as §1

COV362 = test system: COV362
Procedure, shortened: as §1

HOSE1C = test system: HOSE1C
Procedure, shortened: as §1

HOSE2C = test system: HOSE2C
Procedure, shortened: as §1

JHOS2 = test system: JHOS2
Procedure, shortened: as §1

Kuramochi = test system: Kuramochi
Procedure, shortened: as §1

OV90 = test system: OV90
Procedure, shortened: as §1

OVCAR4 = test system: OVCAR4
Procedure, shortened: as §1

OVCAR5 = test system: OVCAR5
Procedure, shortened: as §1

OVCAR8 = test system: OVCAR8
Procedure, shortened: as §1

Ovsaho = test system: Ovsaho
Procedure, shortened: as §1

SMILES | drug sensitivity score (CAOV3) | drug sensitivity score (COV318) | drug sensitivity score (COV362) | drug sensitivity score (HOSE1C) | drug sensitivity score (HOSE2C) | drug sensitivity score (JHOS2) | drug sensitivity score (Kuramochi) | drug sensitivity score (OV90) | drug sensitivity score (OVCAR4) | drug sensitivity score (OVCAR5) | drug sensitivity score (OVCAR8) | drug sensitivity score (Ovsaho)
O=C1CN2Cc3c(ccc(Cl)c3Cl)N=C2N1 [Anagrelide] | 0 | 0 | 0 | 0 | 0 | 0 | 0 | 0 | 0 | 0 | 0 | 0
CC(C)(C#N)c1cc(Cn2cncn2)cc(C(C)(C)C#N)c1 [Anastrozole] | 0 | 0 | 0 | 0 | 0 | 0 | 0 | 0 | 0 | 0 | 0 | 0
CNC(=O)c1ccc(N2C(=S)N(c3cnc(C#N)c(C(F)(F)F)c3)C(=O)C23CCC3)cc1F [Apalutamide] | 0 | 0 | 0 | 0 | 0 | 0 | 0 | 0 | 0 | 0 | 0 | 0
N#CC1(c2ccc(NC(=O)c3cccnc3NCc3ccncc3)cc2)CCCC1 [Apatinib] | 0 | 0 | 0 | 0 | 0 | 0 | 0 | 0 | 0 | 0.5 | 0 | 0.3
O=C(Nc1ccc(OC(F)(F)Cl)cc1)c1cnc(N2CC[C@@H](O)C2)c(-c2cc[nH]n2)c1 [Asciminib] | 0 | 0 | 0 | 0 | 0 | 0 | 0.2 | 0 | 0.3 | 0.4 | 0 | 0
CC(C)c1c(C(=O)Nc2ccccc2)c(-c2ccccc2)c(-c2ccc(F)cc2)n1CC[C@@H](O)C[C@@H](O)CC(=O)O [Atorvastatin] | 0.8 | 0 | 0 | 10.1 | 10.8 | 0.3 | 1 | 2.3 | 0 | 0.4 | 3.6 | 5.2
CC(=O)OC[C@H]1O[C@@H]([S-])[C@H](OC(C)=O)[C@@H](OC(C)=O)[C@@H]1OC(C)=O.CCP(CC)CC.[Au+] [Auranofin] | 9.3 | 5 | 0 | 13.3 | 13.3 | 4.1 | 2.9 | 3.5 | 1.7 | 1.3 | 3.4 | 7.8
CNC(=O)c1ccccc1Sc1ccc2c(/C=C/c3ccccn3)n[nH]c2c1 [Axitinib] | 5 | 0 | 0 | 1.9 | 6.2 | 0 | 0.4 | 0.1 | 0.2 | 0.8 | 2 | 0.8
